Reference: patent US20250074919A1, “Heteroaryl compounds as inhibitors of irak4, compositions and applications thereof” (Accro Bioscience (HK) Limited, priority 2021, published 2025)
Counter-ions that a name gives are not always drawn. Like-named read-outs stand apart in the source and are kept apart here.

Key:
[1] = target: T1, IRAK4 (Homo sapiens (Human), UniProt Q9NWZ3); assay: Screening the compounds against IRAK4 with ATP (Caliper, FAM-labeled peptide); format: biochemical; details: for activity, times better than that of the positive control compound CA4948: IRAK4 kinase inhibition relative to CA4948; for IC50: read-out: IC50 (nM) (10 μM ATP)
T1 sequence (Q9NWZ3 whole entry): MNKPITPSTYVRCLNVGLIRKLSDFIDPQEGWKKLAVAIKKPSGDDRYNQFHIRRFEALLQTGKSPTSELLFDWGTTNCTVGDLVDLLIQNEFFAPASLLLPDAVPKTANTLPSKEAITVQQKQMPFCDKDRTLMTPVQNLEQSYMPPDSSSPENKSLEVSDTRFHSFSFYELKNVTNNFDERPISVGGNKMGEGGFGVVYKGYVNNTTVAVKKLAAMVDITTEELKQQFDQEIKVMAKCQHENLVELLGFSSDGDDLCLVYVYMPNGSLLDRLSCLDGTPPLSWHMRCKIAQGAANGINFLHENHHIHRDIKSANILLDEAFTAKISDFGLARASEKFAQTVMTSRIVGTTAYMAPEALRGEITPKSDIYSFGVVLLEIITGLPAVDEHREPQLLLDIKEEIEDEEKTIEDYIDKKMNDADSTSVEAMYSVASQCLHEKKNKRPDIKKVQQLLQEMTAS
Method in brief: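 Reactions ran at 28° C after adding peptide and ATP, following a 10 min room-temperature enzyme-compound preincubation in HEPES pH 7.5/Brij-35 buffer; EDTA stop.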

[2] = target: T1, IRAK4; assay: Kinase binding ability (KINOMEscan site-directed competition binding assay); details: for Kd: Kd between IRAK4 and compound
Protocol: The Equilibrium dissociation constant reflected the test compound's kinase binding (Kd). The KINOMEscan, a site-directed competition binding assay, was used to measure interactions between test compounds and specific kinases. The kinase-tagged T7 phage strains were derived from the BL21 strain's E. coli host. T7 phage was used to infect E. coli, which was then incubated until lysis occurred. The remaining kinases were produced in HEK-293 cells and tagged with DNA. To create affinity resins for kinase, streptavidin-coated magnetic beads were treated with biotinylated small molecule ligands. The assay consists of three components: a DNA-tagged kinase, an immobilized ligand, and the test compound. An immobilized ligand could compete with the compound binding the kinase active site. The affinity beads were washed with wash buffer and re-suspended in elution buffer following reactions in a polypropylene 384-well plate. qPCR of the kinase-DNA tag was used to assess the test compound's ability to bind with the selected kinase. The assay was carried out in accordance with the manufacturer's instructions (Eurofins DiscoverX Corporation).
Binding constants (Kd) were calculated with a standard dose-response curve using the Hill equation: […]

[3] = Metabolic stability in human liver microsomes; format: in vitro ADME; details: for half-life: NADPH, 37° C., read-out: Human microsome (t1/2)
Protocol: (§1) The appropriate concentrations of microsomes working solutions (0.56 mg/mL) were prepared in potassium phosphate buffer. The test compounds were incubated with Human, SD Rat, CD-1 Mouse and Beagle Dog liver microsomes for 10 min at 37° C. with constant shaking. The reaction was initiated by the addition of nicotinamide adenine dinucleotide phosphate (NADPH) cofactor after a 10 min pre-incubation. At 5, 15, 30, 45, and 60 min, the samples were taken and placed into the stop solution (Cold acetonitrile containing 200 ng/mL tolbutamide and 200 ng/mL labetalol as internal standards). All sampling plates were shaken for 10 min, then centrifuged at 4000 rpm for 20 minutes at 4° C. Each supernatant of bioanalysis plate was sealed and shaken for 10 minutes prior to LC-MS analysis.

[4] = Metabolic stability in rat liver microsomes; format: in vitro ADME, SD Rat; details: for half-life: SD rat liver microsomes, NADPH, 37° C., read-out: Rat microsome (t1/2)
Protocol: as §1

[5] = Metabolic stability in mouse liver microsomes; format: in vitro ADME, CD-1 Mouse; details: for half-life: CD-1 mouse liver microsomes, NADPH, 37° C., read-out: Mouse microsome (t1/2)
Protocol: as §1

[6] = Metabolic stability in dog liver microsomes; format: in vitro ADME, Beagle Dog; details: for half-life: Beagle dog liver microsomes, NADPH, 37° C., read-out: Dog microsome (t1/2)
Protocol: as §1

[7] = Pharmacokinetics study in ICR mice; format: in vivo; details: for clearance rate (in words) / half-life (in words) / oral absorption (in words) / oral exposure and bioavailability (in words): mice; for clearance rate (in words) / half-life (in words): administered intravenously; for oral absorption (in words) / oral exposure and bioavailability (in words): oral administration; for Vd / clearance / half-life / AUC / bioavailability / Cmax / Tmax: mouse, plasma, male ICR mice; for AUC: zero to 24 hours; for bioavailability: oral, p.o.: 10 mg/kg vs i.v.: 2 mg/kg
Protocol: Solution used:10% DMSO+10% Solutol+80% (20% Hp-β-CD)
Single dose pharmacokinetic parameters were determined at Medicilon using male ICR mice (3 […] per group, 2 groups). Groups were dosed i.v. (2 mg/kg) or p.o. (10 mg/kg) and blood samples were taken via submandibular or saphenous vein at the following time points post dosing: 0.083 (i.v. only), 0.25, 0.5, 1, 2, 4, 6 (p.o. only), 8 and 24 h. An aliquot of 50 μL of blood plasma was protein precipitated with 250 μL internal standard solution (200 ng/mL tolbutamide in MeOH), the mixture was vortex-mixed for 1 min and centrifuged at 14,000 rpm for 5 min. The concentration of the test compound in the plasma samples was determined using LC-MS/MS with the peak areas compared to a calibration curve determined using 5-5000 ng/mL test compound in ICR mice plasma. […] Cmax represents peak plasma concentration of the drug; Tmax represents the time to reach Cmax; T1/2 represents elimination half-life or the time taken for Cmax to drop in half; Cl represents clearance; Vd represents apparent volume of distribution; F represents bioavailability; p.o. represents oral administration; and i.v. represents intravenous injection.

| Compound | IC50 ([1]; IRAK4 kinase, 10 μM ATP) | binding affinities to IRAK4 (in words) [2] | Kd [2] | metabolic stability in liver microsomes of human (in words) [3] | half-life [3] | half-life [4] | metabolic stability in liver microsomes of rat (in words) [4] | half-life [5] | metabolic stability in liver microsomes of mouse (in words) [5] | half-life [6] | metabolic stability in liver microsomes of dog (in words) [6] | also measured |
| --- | --- | --- | --- | --- | --- | --- | --- | --- | --- | --- | --- | --- |
| Cn1cc(-c2cccc(NC(=O)c3cc4oc(N5CCOCC5)nc4nc3N3CCC(O)CC3)n2)cn1 [Compound A4, 5-(4-hydroxypiperidin-1-yl)-N-(6-(1-methyl-1H-pyrazol-4-yl)pyridin-2-yl)-2-morpholinooxazolo[4,5-b]pyridine-6-carboxamide] | 11 nM | high binding affinities | 0.59 nM | good metabolic stability | > 2.42 h | 1.53 h | good metabolic stability | > 2.42 h | good metabolic stability | 1.7 h | good metabolic stability | activity, times better than that of the positive control compound CA4948 [1]: more than 10 times; clearance rate (in words) [7]: low clearance rate; half-life (in words) [7]: good half-life; oral absorption (in words) [7]: well absorbed orally; oral exposure and bioavailability (in words) [7]: extremely high oral exposure and bioavailability; Vd ([7]; iv, i.v.: 2 mg/kg): 0.98 L/kg; clearance ([7]; iv, i.v.: 2 mg/kg): 8.1 mL/min/kg; half-life ([7]; iv, i.v.: 2 mg/kg): 1.4 h; AUC ([7]; iv, i.v.: 2 mg/kg): 4050 ng·h/mL; bioavailability [7]: 130%; Cmax ([7]; po, p.o.: 10 mg/kg): 8580 ng/mL; Tmax ([7]; po, p.o.: 10 mg/kg): 1.17 h; AUC ([7]; po, p.o.: 10 mg/kg): 26400 ng·h/mL |
| COC1CCN(c2nc3nc(N4CCOCC4)oc3cc2C(=O)Nc2cccc(-c3cnn(C)c3)n2)CC1 [Compound A24, 5-(4-Methoxypiperidin-1-yl)-N-(6-(1-methyl-1H-pyrazol-4-yl)pyridin-2-yl)-2-morpholinooxazolo[4,5-b]pyridine-6-carboxamide] | 4.1 nM |  |  | good metabolism | 1.95 h | 1.27 h | moderate metabolic stability | 1.48 h | good metabolism | 1.13 h | moderate metabolic stability | activity, times better than that of the positive control compound CA4948 [1]: more than 25 times |
| Cn1cc(-c2cccc(NC(=O)c3cc4oc(N5CCOCC5)nc4nc3N3CC[C@@H](O)C3)n2)cn1 [Compound A1, (R)-5-(3-hydroxypyrrolidin-1-yl)-N-(6-(1-methyl-1H-pyrazol-4-yl)pyridin-2-yl)-2-morpholinooxazolo[4,5-b]pyridine-6-carboxamide] | 405 nM | high binding affinities | 29 nM | good metabolic stability | > 2.42 h | > 2.42 h | good metabolic stability | > 2.42 h | good metabolic stability | > 2.42 h | good metabolic stability |  |
| Cn1cc(-c2cccc(NC(=O)c3cc4oc(N5CCOCC5)nc4nc3N3CCC(F)(F)C3)n2)cn1 [Compound A12, 5-(3,3-Difluoropyrrolidin-1-yl)-N-(6-(1-methyl-1H-pyrazol-4-yl)pyridin-2-yl)-2-morpholinooxazolo[4,5-b]pyridine-6-carboxamide] | 33 nM |  |  |  |  |  |  |  |  |  |  |  |
| COc1ncccc1NC(=O)c1cc2oc(N3CCOCC3)nc2nc1N1CCC(OC)CC1 [Compound A50, 5-(4-Methoxypiperidin-1-yl)-N-(2-methoxypyridin-3-yl)-2-morpholinooxazolo[4,5-b]pyridine-6-carboxamide] | 98 nM |  |  |  |  |  |  |  |  |  |  |  |
| COC1CCN(c2nc3nc(N4CCNCC4)oc3cc2C(=O)Nc2cccc(-c3cnn(C)c3)n2)CC1 [Compound A51, 5-(4-Methoxypiperidin-1-yl)-N-(6-(1-methyl-1H-pyrazol-4-yl)pyridin-2-yl)-2-(piperazin-1-yl)oxazolo[4,5-b]pyridine-6-carboxamide Hydrochloride] |  |  |  |  |  |  |  |  |  |  |  | IC50 [1]: 7 nM |

Further lines, with some results ahead:

| IC50 ([1]; IRAK4 kinase, 10 μM ATP) | binding affinities to IRAK4 (in words) [2] | Kd [2] | metabolic stability in liver microsomes of human (in words) [3] | half-life [3] | half-life [4] | metabolic stability in liver microsomes of rat (in words) [4] | half-life [5] | metabolic stability in liver microsomes of mouse (in words) [5] | half-life [6] | metabolic stability in liver microsomes of dog (in words) [6] | Compound | also measured |
| --- | --- | --- | --- | --- | --- | --- | --- | --- | --- | --- | --- | --- |
| 7.6 nM | high binding affinities | 0.69 nM | good metabolic stability | > 2.42 h | > 2.42 h | good metabolic stability | 1.18 h | moderate metabolic stability | > 2.42 h | good metabolic stability | Cn1cc(-c2cccc(NC(=O)c3cc4c(nc3N3CCC(O)CC3)OC(C)(C)C4)n2)cn1 [Compound B5, 6-(4-Hydroxypiperidin-1-yl)-2,2-dimethyl-N-(6-(1-methyl-1H-pyrazol-4-yl)pyridin-2-yl)-2,3-dihydrofuro[2,3-b]pyridine-5-carboxamide] | clearance rate (in words) [7]: low clearance rate; half-life (in words) [7]: good half-life; oral absorption (in words) [7]: well absorbed orally; oral exposure and bioavailability (in words) [7]: extremely high oral exposure and bioavailability; Vd ([7]; iv, i.v.: 2 mg/kg): 3.6 L/kg; clearance ([7]; iv, i.v.: 2 mg/kg): 13.6 mL/min/kg; half-life ([7]; iv, i.v.: 2 mg/kg): 3.1 h; AUC ([7]; iv, i.v.: 2 mg/kg): 2450 ng·h/mL; bioavailability [7]: 91%; Cmax ([7]; po, p.o.: 10 mg/kg): 1460 ng/mL; Tmax ([7]; po, p.o.: 10 mg/kg): 2 h; AUC ([7]; po, p.o.: 10 mg/kg): 9990 ng·h/mL |
| 176 nM |  |  |  |  |  |  |  |  |  |  | CN1CC(Oc2nc3c(cc2C(=O)Nc2cccc(-c4cnn(C)c4)n2)CC(C)(C)O3)C1 [Compound B31, 2,2-Dimethyl-N-(6-(1-methyl-1H-pyrazol-4-yl)pyridin-2-yl)-6-((1-methylazetidin-3-yl)oxy)-2,3-dihydrofuro[2,3-b]pyridine-5-carboxamide] |  |
| 243 nM |  |  |  |  |  |  |  |  |  |  | Cn1cc(-c2cccc(NC(=O)c3cc4c(nc3O)OC(C)(C)C4)n2)cn1 [Compound B34] |  |
| 11 nM |  |  |  |  |  |  |  |  |  |  | Cn1cc(-c2cccc(NC(=O)c3cc4c(nc3OC3COC3)OC(C)(C)C4)n2)cn1 [Compound B16, 2,2-Dimethyl-N-(6-(1-methyl-1H-pyrazol-4-yl)pyridin-2-yl)-6-(oxetan-3-yloxy)-2,3-dihydrofuro[2,3-b]pyridine-5-carboxamide] |  |
